Source: the NIST ThermoML archive (doi:10.1016/j.jct.2018.10.012)
Numbers after ± are expanded uncertainties.

Conditions: Liquid; for viscosity / mass density: 101.33 kPa; for viscosity: Capillary tube (Ostwald / Ubbelohde) method; for mass density: Pycnometric method; for vapor or sublimation pressure: Ebulliometric method (Recirculating still)

CCCCCCCCCCCCCCCCCC(=O)OCC(CC)CCCC (stereo unspecified) [2-ethylhexyl stearate]
Conditions	mass density [kg/m3]	vapor or sublimation pressure [kPa]	viscosity [mPa·s]
298.15 K	855.4 ± 0.9	–	15.04 ± 0.61
303.15 K	851.4 ± 0.9	–	12.55 ± 0.51
308.15 K	847.9 ± 0.9	–	10.62 ± 0.43
313.15 K	844.9 ± 0.9	–	9.06 ± 0.37
318.15 K	841.1 ± 0.9	–	7.84 ± 0.32
323.15 K	837.7 ± 0.9	–	6.81 ± 0.28
328.15 K	834.4 ± 0.9	–	6.04 ± 0.25
333.15 K	831.1 ± 0.9	–	5.34 ± 0.22
338.15 K	827.8 ± 0.9	–	4.79 ± 0.19
343.15 K	824.5 ± 0.9	–	4.36 ± 0.18
348.15 K	821.1 ± 0.9	–	3.92 ± 0.16
353.15 K	817.2 ± 0.9	–	3.58 ± 0.15
358.15 K	814.2 ± 0.9	–	3.27 ± 0.13
363.15 K	811.2 ± 0.9	–	3.02 ± 0.12
368.15 K	808 ± 0.9	–	2.8 ± 0.11
477.05 K	–	0.213 ± 0.029	–
479.65 K	–	0.253 ± 0.029	–
482.25 K	–	0.28 ± 0.029	–
483.45 K	–	0.307 ± 0.029	–
485.25 K	–	0.333 ± 0.029	–
487.55 K	–	0.373 ± 0.029	–
488.85 K	–	0.4 ± 0.029	–
491.25 K	–	0.44 ± 0.029	–
493.25 K	–	0.493 ± 0.029	–
495.25 K	–	0.547 ± 0.029	–
496.25 K	–	0.573 ± 0.029	–
498.05 K	–	0.613 ± 0.029	–

CCCCCCCCCCCCCCCC(=O)OC [methyl hexadecanoate]
Conditions	vapor or sublimation pressure [kPa]
419.15 K	0.213 ± 0.029
423.15 K	0.279 ± 0.029
425.25 K	0.306 ± 0.029
428.35 K	0.346 ± 0.029
430.75 K	0.399 ± 0.029
432.25 K	0.425 ± 0.029
433.35 K	0.452 ± 0.029
436.25 K	0.532 ± 0.029
438.45 K	0.585 ± 0.029
440.15 K	0.624 ± 0.029
442.35 K	0.705 ± 0.029
444.15 K	0.771 ± 0.029

CCCCCCCCCCCCCCCC(=O)OCC(CC)CCCC (stereo unspecified) [2-ethylhexyl palmitate]
Conditions	mass density [kg/m3]	vapor or sublimation pressure [kPa]	viscosity [mPa·s]
298.15 K	855.1 ± 0.9	–	11.78 ± 0.48
303.15 K	851 ± 0.9	–	10.01 ± 0.41
308.15 K	847.9 ± 0.9	–	8.28 ± 0.34
313.15 K	844.5 ± 0.9	–	7.16 ± 0.29
318.15 K	840.9 ± 0.9	–	6.26 ± 0.25
323.15 K	837.4 ± 0.9	–	5.64 ± 0.23
328.15 K	834 ± 0.9	–	4.94 ± 0.2
333.15 K	830.3 ± 0.9	–	4.41 ± 0.18
338.15 K	826.7 ± 0.9	–	3.94 ± 0.16
343.15 K	823.3 ± 0.9	–	3.55 ± 0.14
348.15 K	820.1 ± 0.9	–	3.24 ± 0.13
353.15 K	816.8 ± 0.9	–	2.94 ± 0.12
358.15 K	813.2 ± 0.9	–	2.71 ± 0.11
363.15 K	810 ± 0.9	–	2.49 ± 0.1
368.15 K	806.9 ± 0.9	–	2.29 ± 0.09
476.95 K	–	0.307 ± 0.029	–
479.35 K	–	0.333 ± 0.029	–
482.35 K	–	0.387 ± 0.029	–
484.95 K	–	0.427 ± 0.029	–
488.05 K	–	0.493 ± 0.029	–
490.35 K	–	0.547 ± 0.029	–
491.45 K	–	0.573 ± 0.029	–
493.85 K	–	0.627 ± 0.029	–
496.05 K	–	0.68 ± 0.029	–
497.35 K	–	0.733 ± 0.029	–
499.35 K	–	0.8 ± 0.029	–
500.85 K	–	0.853 ± 0.029	–
